Data reported in patent US12661353B2, “SPT5 inhibitors and uses thereof” (Yeda Research and Development Co. Ltd., priority 2020, dated 2026).
Entries after “also recorded” stand apart in the source; their conditions may differ. Read-outs that look alike come from different tables or passages of the source.

Legend:
[1] = system: pro-inflammatory genes A20, CCL20, IL6, IL8, CXCL2, JUNB and IEX1; assay: mRNA levels of pro-inflammatory genes under TNFα-induced conditions, HeLa, RT-qPCR; format: cell-based, human; conditions: for Down-regulating transcription of pro-inflammatory genes under TNFα induced conditions (i.e. inhibiting transcription elongation of pro-inflammatory genes induced by Spt5): HeLa cells, SPI 1 hour then TNFα 1 hour; for effect on TNFα-induced levels of pro-inflammatory genes, in words: HeLa, SPI (50 μM or less) 1 hour then TNFα 1 hour
Description: (§1) Cell culture—HEK293T, HeLa, MCF7, Jurkat and mouse embryonic fibroblasts (MEFs) cells were grown and maintained in Dulbecco's modified Eagle's medium supplemented with 10% fetal calf serum (Gibco) and 1% penicillin-streptomycin. To avoid NF-κB activity, HeLa cells were kept from reaching confluence and re-plated no more than 10 times following initial thawing. To induce NF-κB activity, cells were treated with […] recombinant human TNF-α (Peprotech) for the indicated times. STHdh Q111 and STHdh Q7 striatal cell lines (Coriell Institute for Medical Research) were grown in Dulbecco's modified Eagle's medium supplemented with 10% fetal calf serum (Gibco), 1% penicillin-streptomycin and 0.4 mg/ml G418 at 33° C. The cells were re-plated no more than 5-6 times, as recommended.
(§2) RNA analysis—Total RNA was extracted using Tri-reagent (Bio-Lab Chemicals) and Direct-Zol™ RNA MiniPrep kit (Zymo Research). Following, cDNA was synthesized from […] of total RNA using a High-Capacity cDNA Reverse Transcription Kit (ABI, Thermo Fisher Scientific). cDNA samples were analyzed by quantitative PCR (qPCR) in a ViiA 7 Real-Time PCR System using Fast qPCRBIO SYBR Green Mix (PCR Biosystems).
In the next step, the effect of the identified SPIs on expression of the selected genes following NF-κB activation was analyzed. Specifically, Hela cells were pre-incubated with DMSO or SPI (50 μM or less) for 1 hour followed by treatment with TNFα for an additional 1 hour.

Spt5 activities = assay: Combined effects on the various Spt5 activities (summary of Examples 1-4); format: cell-based
[2] = system: pro-inflammatory genes A20, CCL20, IL6, IL8, CXCL2, JUNB and IEX1; assay: mRNA levels of pro-inflammatory genes under basal conditions, HeLa, RT-qPCR; format: cell-based, human; conditions: HeLa cells, 2 hours, 50 μM SPI
Description: as §1, §2
Thus, a subset of Spt5-responsive pro-inflammatory genes from the aforementioned studies and from others (Aida et al., 2006; Fujita et al., 2009), namely A20, CCL20, IL6, IL8, CXCL2, JUNB and IEX1, were selected and the effect of the identified SPIs on their expression under basal conditions and in response to NF-κB activation was tested (FIGS. 2A-C and 3A-C). Specifically, for analyzing expression under basal conditions, Hela cells were treated with vehicle (DMSO) or SPI for 2 hours and following RNA was extracted and analyzed by RT-qPCR.

mutant (Q111) Htt = assay: Htt mRNA levels in Q111 striatal cells, qPCR; as to Down-regulating transcription of Mutant Htt (i.e. inhibiting transcription elongation of mutant Htt gene induced by Spt5): key: + represent a statistically significant effect; format: cell-based, mouse; conditions: for effect on mutant (Q111) Htt mRNA expression, in words / Down-regulating transcription of Mutant Htt (i.e. inhibiting transcription elongation of mutant Htt gene induced by Spt5): 48 hours; for Down-regulating transcription of Mutant Htt (i.e. inhibiting transcription elongation of mutant Htt gene induced by Spt5): Q111 striatal cells
Description: as §1
Huntington's disease (HD) is an inherited genetic disorder caused by expansion trinucleotide CAG repeats (36 and higher) encoding glutamine (Q) in the huntingtin (Htt) gene. Expression of the mutant gene in neurons of the striatum and the frontal cortex leads to degeneration of neuronal cells that control body movements, emotions and intellect. […] To examine the potential effect of SPIs in this context, striatal cell lines established from wild type (Q7) or from mutant (Q111) Htt knock-in mice were used. In these cell lines the coding region of the first exon of the mouse Htt gene was replaced with the same region of human wild type (Q7) or mutant (Q111) Htt, as schematically shown in FIG. 6A. The two cell lines were treated for 48 hours with the identified SPIs and following the levels of Htt mRNA were determined.
The compounds were tested as described in Example 4 hereinabove. In brief, Q111 (or Q7, where indicated) expressing Striatal cells were treated with the tested compound at the indicated concentrations for 48 hours. Then, RNA was extracted and levels of Htt mRNA were determined by qRT-PCR and normalized to β-actin. The data was analysed using GraphPad Prism software.

Structure (SMILES) | Down-regulating transcription of pro-inflammatory genes under TNFα induced conditions (i.e. inhibiting transcription elongation of pro-inflammatory genes induced by Spt5) [1] | classification by effect on the various Spt5 activities, in words (Spt5 activities) | Up-regulation of pro-inflammatory genes under basal conditions (i.e. inhibiting proximal promoter pausing of pro-inflammatory genes induced by Spt5) [2] | effect on mutant (Q111) Htt mRNA expression, in words (mutant (Q111) Htt) | effect on TNFα-induced levels of pro-inflammatory genes, in words [1] | Down-regulating transcription of Mutant Htt (i.e. inhibiting transcription elongation of mutant Htt gene induced by Spt5) (mutant (Q111) Htt) | effective concentration on mutant Htt lower than the concentration needed to inhibit expression of the pro-inflammatory genes (mutant (Q111) Htt) | classification by effect on the various Spt5 activities, in words (Spt5 activities; listed as SPJ-09) | classification by effect on the various Spt5 activities, in words (Spt5 activities; listed as SPJ-85)
O=C(O)c1ccc(C=C2CSc3c(F)cccc3C2=O)cc1 [SPI-46] | +++ (+++ represent >80% inhibition) | affected the basal and the TNFα-induced pro-inflammatory gene transcription | + (+ >1.6) | did not affect mutant Htt expression | – | – | – | – | –
OCc1ccc(-c2ccc(-c3cccs3)s2)s1 [SPI-8108] | – | – | – | efficacy in selectively inhibiting transcription of Htt gene | – | – | – | – | –
COc1ccc(C2=NCC(CSc3nc4cc(Cl)ccc4o3)S2)cc1 (centres unmarked) [SPI-0324] | – | – | – | efficacy in selectively inhibiting transcription of Htt gene | – | – | – | – | –
O=C(O)c1ccc(C=C2CSc3ccc(F)cc3C2=O)cc1 [SPI-68] | ++ (++ >65%) | – | + (+ >1.6) | – | affected mainly the genes that were strongly induced by the TNFα treatment | + | – | – | –
CCN(CC)CCOc1ccc(C(=C(Cl)c2ccccc2)c2ccccc2)cc1 [SPI-42] | ++ (++ >65%) | affected the basal and the TNFα-induced pro-inflammatory gene transcription | + (+ >1.6) | did not affect mutant Htt expression | affected mainly the genes that were strongly induced by the TNFα treatment | – | – | – | –
Nc1ccc2ncnc(NCCc3ccc(Oc4ccccc4)cc3)c2c1 [SPI-74] | ++ (++ >65%) | affect all the tested Spt5 activities | + (+ >1.6) | – | affected mainly the genes that were strongly induced by the TNFα treatment | + | – | – | –
N#CC(C#N)=CC=C(Sc1ncc(C(F)(F)F)cc1Cl)c1ccc(Cl)cc1 [SPI-16] | +++ (+++ represent >80% inhibition) | affected the basal and the TNFα-induced pro-inflammatory gene transcription | ++ (++ >3) | did not affect mutant Htt expression | – | – | – | – | –
Cc1ccnc(SC=CC(=O)c2ccccc2)n1 [SPI-57] | +++ (+++ represent >80% inhibition) | affected the basal and the TNFα-induced pro-inflammatory gene transcription | + (+ >1.6) | did not affect mutant Htt expression | – | – | – | – | –
CSc1ccccc1NS(=O)(=O)c1ccc(-n2ncc(Cl)c(Cl)c2=O)cc1 [SPI-1477] | – | – | – | efficacy in selectively inhibiting transcription of Htt gene | – | – | – | – | –
OCc1ccc(-c2ccc(-c3ccc(CO)s3)o2)s1 [SPI-48] | – | a single activity as SPI inhibitors towards inhibiting transcription of Htt gene | – | – | – | + | – | – | –
CCc1ccccc1NS(=O)(=O)c1ccc(-n2ncc(Cl)c(Cl)c2=O)cc1 [SPI-31] | +++ (+++ represent >80% inhibition) | inhibited mainly the positive activity of Spt5 with little or no effect on proximal promoter pausing; also recorded: a single activity as SPI inhibitors towards inhibiting transcription of Htt gene | – | efficacy in selectively inhibiting transcription of Htt gene | – | + | about 15 fold | – | –
CCc1ccccc1NS(=O)(=O)c1ccc(-n2ncccc2=O)cc1 [SPI-4516K, N-(2-ethylphenyl)-4-(6-oxopyridazin-1(6H)-yl)benzenesulfonamide] | – | – | – | efficacy in selectively inhibiting transcription of Htt gene | – | – | – | – | –
Cn1cc(-c2ccncc2)c(-c2ccc(OCc3ccc4ccccc4n3)cc2)n1 [SPI-95] | ++ (++ >65%) | affected the basal and the TNFα-induced pro-inflammatory gene transcription | + (+ >1.6) | did not affect mutant Htt expression | affected mainly the genes that were strongly induced by the TNFα treatment | – | – | – | –
O=C1C(=Cc2cccc(O)c2)CSCC1=Cc1cccc(O)c1 [SPI-157] | +++ (+++ represent >80% inhibition) | affected the basal and the TNFα-induced pro-inflammatory gene transcription | ++ (++ >3) | did not affect mutant Htt expression | – | – | – | – | –
CN(Cc1cnn(Cc2ccccc2)c1)c1ccc2nnc(-c3ccccc3)n2n1 [SPI-17] | +++ (+++ represent >80% inhibition) | affected the basal and the TNFα-induced pro-inflammatory gene transcription | +++ (+++ represent effect >10) | did not affect mutant Htt expression | – | – | – | – | –
O=C(/C=C/c1ccc(O)cc1)CC(=O)/C=C/c1ccc(O)cc1 [SPI-29] | +++ (+++ represent >80% inhibition) | affect all the tested Spt5 activities | ++ (++ >3) | – | – | + | – | – | –
O=c1oc2cc(O)ccc2s1 [SPI-09] | – | little or no effect on basal and induced pro-inflammatory gene expression | – | diminished mutant Htt expression | – | + | – | a single activity as SPI inhibitors towards inhibiting transcription of Htt gene | –
CN(C)c1ccc(C2NCC(CSc3nc4ccccc4s3)O2)cc1 (centres unmarked) [SPI-85] | – | little or no effect on basal and induced pro-inflammatory gene expression | – | diminished mutant Htt expression | – | + | – | – | a single activity as SPI inhibitors towards inhibiting transcription of Htt gene
